Where two headings read alike, the source gives them in different places.
What was measured:
human CB2R = target: T1, human CB2R (Homo sapiens, UniProt P34972); assay: CB2R mediated modulation of cAMP synthesis; type: cell-based
T1 construct: host or cells: CHO cells
Experimental: B. CB2R Mediated Modulation of cAMP Synthesis:
Compounds of the invention are evaluated for their CB2 agonist or inverse agonistic activity in accordance with the following experimental method.
(§1) CHO cells expressing human CB2R (Euroscreen) are plated at a density of 5000 cells per well in 384 well plates and incubated overnight at 37° C. After removing the media, the cells are treated with test compounds diluted in stimulation buffer containing 1 mM IBMX, 0.25% BSA and 10 uM Forskolin. The assay is incubated for 30 minutes at 37° C. Cells are lysed and the cAMP concentration is measured using DiscoverX-XS cAMP kit, following the manufacturer's protocol. In this setting, agonists will decrease forskolin induced production of cAMP while inverse agonists will further increase forskolin induced production of cAMP. EC50 of agonists are calculated as follows. The maximal amount of cAMP produced by forskolin compared to the level of cAMP inhibited by 1 uM CP55940 is defined as 100%. […] Data is analyzed using a four-parameter logistic model. (Model 205 of XLfit 4.0).

human CB1R = target: T2, human CB1R (Homo sapiens, UniProt P21554); assay: CB1R mediated modulation of cAMP synthesis; type: cell-based
T2 construct: host or cells: CHO cells
T2 sequence (P21554 whole entry): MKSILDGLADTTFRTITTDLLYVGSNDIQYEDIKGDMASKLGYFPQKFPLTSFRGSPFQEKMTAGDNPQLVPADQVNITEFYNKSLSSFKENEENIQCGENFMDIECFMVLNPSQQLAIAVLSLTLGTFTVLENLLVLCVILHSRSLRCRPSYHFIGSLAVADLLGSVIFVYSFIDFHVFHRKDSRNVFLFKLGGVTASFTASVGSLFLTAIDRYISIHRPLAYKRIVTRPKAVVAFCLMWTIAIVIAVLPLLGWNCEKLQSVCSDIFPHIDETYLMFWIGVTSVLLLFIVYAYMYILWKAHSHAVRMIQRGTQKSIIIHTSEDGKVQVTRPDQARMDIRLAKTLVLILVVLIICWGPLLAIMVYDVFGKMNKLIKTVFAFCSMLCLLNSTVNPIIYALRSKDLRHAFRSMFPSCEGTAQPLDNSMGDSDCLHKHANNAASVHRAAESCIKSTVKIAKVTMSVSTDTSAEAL
Experimental: C. CB1R Mediated Modulation of cAMP Synthesis:
Compounds of the invention are evaluated for their CB1 agonist or inverse agonistic activity in accordance with the following experimental method.
as §1, with “CB1R” for “CB2R”

[1] = CHO cells expressing human CB2R, inhibition of forskolin-stimulated cAMP synthesis, read-out: CB2 EC50
[2] = CHO cells expressing human CB1R, inhibition of forskolin-stimulated cAMP synthesis, read-out: CB1 EC50

T1 sequence (P34972 whole entry): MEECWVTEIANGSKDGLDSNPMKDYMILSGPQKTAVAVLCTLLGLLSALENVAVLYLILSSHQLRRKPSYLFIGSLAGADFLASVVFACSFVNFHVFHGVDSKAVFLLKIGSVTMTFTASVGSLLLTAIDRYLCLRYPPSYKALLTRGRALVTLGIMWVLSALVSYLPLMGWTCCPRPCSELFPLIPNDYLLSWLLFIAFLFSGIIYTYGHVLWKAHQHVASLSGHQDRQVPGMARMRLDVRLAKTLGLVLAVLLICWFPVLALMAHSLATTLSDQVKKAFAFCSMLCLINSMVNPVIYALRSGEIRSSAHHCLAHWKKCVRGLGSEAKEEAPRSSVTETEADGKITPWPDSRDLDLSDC

CC(C)(CO)c1cc(NC(=O)C(C)(C)S(=O)(=O)N2CCC2)on1
EC50 (human CB2R; [1]): 288 nM
EC50 (human CB1R; [2]): > 20000 nM

COc1ccc(-c2nnc(NC(=O)C(C)(C)S(=O)(=O)C3CCCC3)[nH]2)cc1
EC50 (human CB2R): 14 nM
EC50 (human CB1R): > 20000 nM

CC(C)(C(=O)Nc1nc(-c2ccccc2O)n[nH]1)S(=O)(=O)C1CCOCC1
EC50 (human CB2R): 30 nM
EC50 (human CB1R): > 20000 nM

CC(C)(CO)c1cc(NC(=O)C(C)(C)S(=O)(=O)C2CCOCC2)on1
EC50 (human CB2R): 11 nM
EC50 (human CB1R): > 50000 nM

CCOc1ccc(-c2nnc(NC(=O)C(C)(C)S(=O)(=O)C3CCOCC3)[nH]2)cc1
EC50 (human CB2R; [1]): 208 nM
EC50 (human CB1R; [2]): > 50000 nM

CC(C)(CO)c1cc(NC(=O)C(C)(C)S(=O)(=O)CCCC(F)(F)F)no1
EC50 (human CB2R): 25 nM
EC50 (human CB1R): > 20000 nM

COc1ccc(-c2nnc(NC(=O)C(C)(C)S(=O)(=O)N3CCC3)[nH]2)cc1
EC50 (human CB2R): 32 nM
EC50 (human CB1R): > 20000 nM

CC(C)(CO)c1cc(NC(=O)C(C)(C)S(=O)(=O)CC[C@@H]2CCOC2)on1
EC50 (human CB2R): 14 nM
EC50 (human CB1R): > 50000 nM

CC(C)(C(=O)Nc1cc(C2(CO)CCCC2)no1)S(=O)(=O)CC1CCOCC1
EC50 (human CB2R): 206 nM
EC50 (human CB1R): > 50000 nM

CC(C)(C(=O)Nc1cc(C2(CO)CCC2)no1)S(=O)(=O)CC1CCC1
EC50 (human CB2R): 74 nM
EC50 (human CB1R): > 50000 nM

COc1ccc(-c2nnc(NC(=O)C(C)(C)S(=O)(=O)CC3CC3)[nH]2)c(F)c1
EC50 (human CB2R): 34 nM
EC50 (human CB1R): > 50000 nM

CC(C)(C(=O)Nc1nnc(-c2ccc(O)cc2)[nH]1)S(=O)(=O)CC1CCOCC1
EC50 (human CB2R): 100 nM
EC50 (human CB1R): > 20000 nM

CC(C)(C(=O)Nc1nnc(-c2ccc(O)cc2)[nH]1)S(=O)(=O)c1ccc(F)cc1
EC50 (human CB2R): 4 nM
EC50 (human CB1R): > 20000 nM

CC(C)(C(=O)Nc1nc(-c2ccc(O)cc2)n[nH]1)S(=O)(=O)CC1CCC1
EC50 (human CB2R): 22 nM
EC50 (human CB1R): > 50000 nM

COc1ccc(-c2nnc(NC(=O)C(C)(C)S(=O)(=O)C3CCOCC3)[nH]2)cc1
EC50 (human CB2R): 0.66 nM
EC50 (human CB1R): > 20000 nM

COc1ccc(-c2nnc(NC(=O)C(C)(C)S(=O)(=O)N3CC[C@@H](F)C3)[nH]2)cc1
EC50 (human CB2R): 33 nM
EC50 (human CB1R): > 50000 nM

CC(C)(CO)c1cc(NC(=O)C(C)(C)S(=O)(=O)C2CCCC2)no1
EC50 (human CB2R; [1]): 222 nM
EC50 (human CB1R; [2]): ≥ 50000 nM

CC(C)(C(=O)Nc1cc(C2(CO)CCCCC2)no1)S(=O)(=O)C1CCOCC1
EC50 (human CB2R): 38 nM
EC50 (human CB1R): > 20000 nM

CC(C)CCS(=O)(=O)C(C)(C)C(=O)Nc1cc(C2(CO)CC2)no1
EC50 (human CB2R): 14 nM
EC50 (human CB1R): > 20000 nM

COc1ccc(-c2nnc(NC(=O)C(C)(C)S(=O)(=O)C3CCN(S(C)(=O)=O)CC3)[nH]2)cc1
EC50 (human CB2R): 16 nM
EC50 (human CB1R): 29400 nM

CC(C)(O)c1cc(NC(=O)C(C)(C)S(=O)(=O)CCCC(F)(F)F)on1
EC50 (human CB2R): 49 nM
EC50 (human CB1R): > 20000 nM

CC(C)(CO)c1cc(NC(=O)C(C)(C)S(=O)(=O)CC2CCC2)on1
EC50 (human CB2R): 82 nM
EC50 (human CB1R): > 20000 nM

COc1ccc(-c2nnc(NC(=O)C(C)(C)S(=O)(=O)C[C@@H]3CCOC3)[nH]2)cc1
EC50 (human CB2R): 240 nM
EC50 (human CB1R): > 50000 nM

COCC(C)(C)c1cc(NC(=O)C(C)(C)S(=O)(=O)C2CCOCC2)on1
EC50 (human CB2R): 3.1 nM
EC50 (human CB1R): > 20000 nM

CC(C)(CO)c1cc(NC(=O)C(C)(C)S(=O)(=O)c2ccc(F)cc2)no1
EC50 (human CB2R): 45 nM
EC50 (human CB1R): > 50000 nM

CC(C)(CO)c1cc(NC(=O)C(C)(C)S(=O)(=O)c2cccc(F)c2F)no1
EC50 (human CB2R): 69 nM
EC50 (human CB1R): > 50000 nM

CC(C)(C(=O)Nc1nnc(-c2ccc(O)cc2)[nH]1)S(=O)(=O)CC1CC1
EC50 (human CB2R): 34 nM
EC50 (human CB1R): > 50000 nM

CC(C)(C(=O)Nc1nnc(-c2ccc(O)cc2F)[nH]1)S(=O)(=O)CC1CCC1
EC50 (human CB2R): 9.4 nM
EC50 (human CB1R): 35000 nM

CC(C)(CO)c1cc(NC(=O)C(C)(C)S(=O)(=O)CC2CCOCC2)no1
EC50 (human CB2R; [1]): 208 nM
EC50 (human CB1R; [2]): > 50000 nM

CC(C)(C(=O)Nc1nc(-c2ccc(O)cc2)n[nH]1)S(=O)(=O)C1CCCC1
EC50 (human CB2R): 36 nM
EC50 (human CB1R): > 50000 nM

COCC(C)(C)c1cc(NC(=O)C(C)(C)S(=O)(=O)C2CCN(S(C)(=O)=O)CC2)no1
EC50 (human CB2R): 6.2 nM
EC50 (human CB1R): > 50000 nM

CC[C@H](C)S(=O)(=O)C(C)(C)C(=O)Nc1nnc(-c2ccc(OC)cc2)[nH]1
EC50 (human CB2R): 47 nM
EC50 (human CB1R): > 50000 nM

CC(C)(CO)c1cc(NC(=O)C(C)(C)S(=O)(=O)C2CCOCC2)no1
EC50 (human CB2R): 33 nM
EC50 (human CB1R): > 50000 nM

CC[C@@H](C)S(=O)(=O)C(C)(C)C(=O)Nc1nnc(-c2ccc(OC)cc2)[nH]1
EC50 (human CB2R): 83 nM
EC50 (human CB1R): > 50000 nM
